We go through 14 molecules from publication PMC10943399 (Heliyon, 2024).

Entries after “also recorded” stand apart in the source; their conditions may differ. Like-named read-outs stand apart in the source and are kept apart here. Bounds are passed on as bounds.

In data set [1] the test system is P. falciparum Gombak A (CQ-resistant). As to the kind of experiment: pLDH antimalarial assay, P. falciparum Gombak A. Type of data set: cell-based, Plasmodium falciparum. To be noted: for EC50: 48 h; for Selectivity Index (SI) (CC50MTT/EC50pLDH) P. falciparum Gombak A (CQ-resistant): Vero CC50 / Gombak A EC50.
For the next data set, the system named is P. knowlesi PKA1H1. As to the kind of experiment: pLDH antimalarial assay, P. knowlesi A1H1. Type of data set: cell-based, Plasmodium knowlesi. To be noted: for EC50: Plasmodium knowlesi, 24 h, read-out: P. knowlesi PKA1H1 EC50 (μM) ± SD; for Selectivity Index (SI) (CC50MTT/EC50pLDH) P. knowlesi PKA1H1: Vero CC50 / PKA1H1 EC50.
For data set [2], the system named is P. falciparum 3D7 (CQ-sensitive). Put plainly: pLDH antimalarial assay, P. falciparum 3D7. The data set is classed as cell-based, Plasmodium falciparum. The following applies: for Selectivity Index (SI) (CC50MTT/EC50pLDH) P. falciparum 3D7 (CQ-sensitive): Vero CC50 / 3D7 EC50; for antimalarial activity category against CQ-sensitive P. falciparum 3D7: category by EC50 range.

The next data set can be described thus: Solubility in egg water. Type of data set: physicochemical. The following applies: zebrafish egg water.
Another data set relates to parasites. The following applies: mice, dosage of 5 mg/kg, four days after treatment; cited from earlier work.
Data set [3] deals with transgenic zebrafish line Tg(kdrl:egfp). Put plainly: Blood vessel formation in transgenic zebrafish Tg. Type of data set: in vivo, zebrafish (Danio rerio). To be noted: 30 hpf.
The subject of data set [4] is zebrafish embryos. Put plainly: Spontaneous tail coiling. Type of data set: in vivo, zebrafish (Danio rerio). The following applies: zebrafish embryos at 24 hpf, 6.25-50 μM, vs 0.1% DMSO.
The test system of data set [5] is zebrafish embryos. As to the kind of experiment: Zebrafish embryo acute toxicity. The data set is classed as in vivo, zebrafish (Danio rerio). The following applies: for effect on early embryonic development: zebrafish embryos at 24 hpf.
In the next data set the test system is Vero cell (Normal cell). Put plainly: MTT cytotoxicity assay against Vero cells. To be noted: read-out: Vero cell (Normal cell) CC50 (μM) ± SD, 72 h, three independent experiments. The data set is classed as cell-based. In general terms: Formazan colour is commonly taken as a measure of viable cells.
For another data set, the system named is zebrafish larvae. Put plainly: Zebrafish cardiotoxicity. The data set is classed as in vivo, zebrafish (Danio rerio). To be noted: zebrafish larvae at 72 hpf.
Setting [6] is: Plasmodium falciparum, read-out: P. falciparum Gombak A (CQ-resistant) EC50 (μM) ± SD, pLDH assay, 48 h, three independent experiments.
Where [7] appears, read: Plasmodium falciparum, 3D7, 48 h, read-out: P. falciparum 3D7 (CQ-sensitive) EC50 (μM) ± SD, pLDH assay, 48 h, three independent experiments.
Where [8] appears, read: read-out: P. falciparum 3D7 (CQ-sensitive) EC50 (μM) ± SD, pLDH assay, 48 h, three independent experiments.
The mark [9] stands for this setting: zebrafish, 72 hpf, up to 200 μM.
Setting [10] is: up to 200 μM, 2 h after treatment.

Consider `COc1cc(C=C2CCC(=Cc3cc(OC)c(OC)c(OC)c3)C2=O)cc(OC)c1OC` [MS87, 2,5-Bis(3,4,5-trimethoxybenzylidene)cyclopentanone], for which the EC50 (usually the concentration that produces a half-maximal response) in data set [1] (setting [6]) was 1.85 to 8.75 µM; in data set [1] (read-out: P. falciparum Gombak A (CQ-resistant) EC50 (μM) ± SD, pLDH assay, three independent experiments), 1.85 ± 2.8 µM; in the data set with P. knowlesi PKA1H1, 11.4 ± 0.9 µM; in data set [2] (setting [7]), 10.8 ± 1.3 µM. Further, the “Selectivity Index (SI) (CC50MTT/EC50pLDH) P. falciparum Gombak A (CQ-resistant)” value in data set [1] was 304.9. Further, the “Selectivity Index (SI) (CC50MTT/EC50pLDH) P. knowlesi PKA1H1” value in the data set with P. knowlesi PKA1H1 came to 49.5. In addition, in data set [2], the “Selectivity Index (SI) (CC50MTT/EC50pLDH) P. falciparum 3D7 (CQ-sensitive)” value is given as 52.2. Moreover, the “antimalarial activity category against CQ-sensitive P. falciparum 3D7” value in data set [2] was “active”. Moreover, in “Solubility in egg water”, the “solubility in egg water” value is on record as “problems with solubility in egg water”.
With `O=C1C(=Cc2ccccc2Cl)CCCC1=Cc1ccccc1Cl` [MS47, 2,6-Bis(2-chlorobenzylidene)cyclohexanone], in data set [1] (setting [6]), the EC50 worked out at 51.4 ± 2.7 µM. In data set [1], the “Selectivity Index (SI) (CC50MTT/EC50pLDH) P. falciparum Gombak A (CQ-resistant)” value was 3.3. In addition, in the data set with P. knowlesi PKA1H1, the EC50 amounted to 21.7 ± 1.2 µM and the “Selectivity Index (SI) (CC50MTT/EC50pLDH) P. knowlesi PKA1H1” value worked out at 7.9. For the same molecule, in data set [2] (setting [7]), the EC50 was 16.1 ± 0.5 µM. In data set [2], the “Selectivity Index (SI) (CC50MTT/EC50pLDH) P. falciparum 3D7 (CQ-sensitive)” value turned out to be 10.6 and the “antimalarial activity category against CQ-sensitive P. falciparum 3D7” value is “active”.
Consider `O=C1C(=Cc2ccccc2F)CCC1=Cc1ccccc1F` [MS78, 2,5-Bis(2-fluorobenzylidene)cyclopentanone], for which the EC50 in data set [1] (setting [6]) is over 200 µM; in the data set with P. knowlesi PKA1H1, 355 ± 7.1 µM; in [2] (setting [7]) it was over 500 µM; in [2] (setting [8]), 689.1 ± 4.2 µM.
Regarding `COc1cc(C=C2CCCC(=Cc3cc(OC)c(OC)c(OC)c3)C2=O)cc(OC)c1OC` [MS72C, 2,6-Bis(3,4,5-trimethoxybenzylidene)cyclohexanone], the EC50 in data set [1] (setting [6]) was over 200 µM; in the data set on P. knowlesi PKA1H1 it was 430.1 ± 2.3 µM; in data set [2] (setting [7]), over 500 µM; in data set [2] (setting [8]), 515.1 ± 4.9 µM.
`COc1cccc(OC)c1C=CC(=O)C=Cc1c(OC)cccc1OC` [MS33D, 1,5-Bis(2,6-dimethoxyphenyl)penta-1,4-dien-3-one]: the EC50 in data set [1] (setting [6]) came to 74.4 ± 2.4 µM; in the data set with P. knowlesi PKA1H1, 23.7 ± 2.6 µM; in data set [2] (setting [7]), 21.7 ± 0.8 µM. Also, in data set [1], the “Selectivity Index (SI) (CC50MTT/EC50pLDH) P. falciparum Gombak A (CQ-resistant)” value is 3.0. In the data set with P. knowlesi PKA1H1, the “Selectivity Index (SI) (CC50MTT/EC50pLDH) P. knowlesi PKA1H1” value turned out to be 9.5. Moreover, the “Selectivity Index (SI) (CC50MTT/EC50pLDH) P. falciparum 3D7 (CQ-sensitive)” value in data set [2] was 10.4.
As to `COc1cc(/C=C/C(=O)CC(=O)/C=C/c2ccc(O)c(OC)c2)ccc1O` [free curcumin, curcumin], in the data set on parasites, the suppression of parasites was 40.5%.
`CCN(CC)CCCC(C)Nc1ccnc2cc(Cl)ccc12` (centres unmarked) [CQ, chloroquine, reference compound]: the EC50 in data set [1] (setting [6]) was 5.56 ± 3.2 µM.
Turning to `COc1cccc(C=CC(=O)C=Cc2cccc(OC)c2OC)c1OC` [MS33A, 1,5-Bis(2,3-dimethoxyphenyl)penta-1,4-dien-3-one], the “development of intersegmental vessels (ISVs)” value (from here on “development … (ISVs)”) in [3] (50 μM (not at 25 μM)) is reported as “affected ISVs development; also recorded: inhibitory effects on ISV development”. Moreover, the EC50 in data set [1] (setting [6]) worked out at 87.5 ± 0.9 µM. In addition, the “Selectivity Index (SI) (CC50MTT/EC50pLDH) P. falciparum Gombak A (CQ-resistant)” value in data set [1] is listed as 1.0. For the same molecule, the “mean STC activity” value in the data set with zebrafish embryos [4] is reported as “No significant change”. Also, in the data set on P. knowlesi PKA1H1, the EC50 came out at 3.6 ± 0.2 µM and the “Selectivity Index (SI) (CC50MTT/EC50pLDH) P. knowlesi PKA1H1” value amounted to 22.9. Moreover, in [2], the “Selectivity Index (SI) (CC50MTT/EC50pLDH) P. falciparum 3D7 (CQ-sensitive)” value stood at 26.6 and the “antimalarial activity category against CQ-sensitive P. falciparum 3D7” value is reported as “active”. For the same molecule, the “effect on early embryonic development” value with zebrafish embryos [5] (100 μM (not at 50 μM and lower)) is reported as “gastrulation defects”. In the data set on zebrafish embryos [5] (zebrafish, 72 hpf, 50 μM (not at 25 μM)), the “heart development (edema)” value is given as “heart edema”. Further, the CC50 (commonly the concentration that lowers cell viability or growth by half) in the data set with Vero cell (Normal cell) came to 82.6 ± 1.7 µM. In the data set on zebrafish larvae (12.5 μM), the heart rate result was “relatively normal”. The heart rate result in the data set with zebrafish larvae (25 and 50 μM) is reported as “decrease in heartbeats”.
In the case of `O=C1C(=Cc2cccc(F)c2)CCC1=Cc1cccc(F)c1` [MS79, 2,5-Bis(3-fluorobenzylidene)cyclopentanone], the EC50 was over 200 µM in data set [1] (setting [6]), 195 ± 2.7 µM with P. knowlesi PKA1H1, over 500 µM in data set [2] (setting [7]) and 329.3 ± 2.6 µM in [2] (setting [8]).
With `COc1ccc(OC)c(C=CC(=O)C=Cc2cc(OC)ccc2OC)c1` [MS33C, 1,5-Bis(2,5-dimethoxyphenyl)penta-1,4-dien-3-one], in data set [3] (up to 200 μM), the “development … (ISVs)” value is “no effect on normal vessel development; also recorded: no significant difference”. Further, the EC50 in data set [1] (setting [6]) is 56.2 ± 1.3 µM; with P. knowlesi PKA1H1 it was 5.1 ± 0.2 µM; in data set [2] (setting [7]), under 5 µM; in data set [2] (setting [8]), 2.5 ± 0.4 µM. Moreover, the “Selectivity Index (SI) (CC50MTT/EC50pLDH) P. falciparum Gombak A (CQ-resistant)” value in data set [1] is given as 2.9. Moreover, the “mean STC activity” value with zebrafish embryos [4] is “No significant change”. The “Selectivity Index (SI) (CC50MTT/EC50pLDH) P. knowlesi PKA1H1” value in the data set with P. knowlesi PKA1H1 was determined as 32.0. Besides, in data set [2], the “Selectivity Index (SI) (CC50MTT/EC50pLDH) P. falciparum 3D7 (CQ-sensitive)” value was 65.2. The “antimalarial activity category against CQ-sensitive P. falciparum 3D7” value in [2] was “active”. In the data set with zebrafish embryos [5] (up to 200 μM), the “effect on early embryonic development” value is recorded as “no significant effect”. Besides, the “morphological changes / heart development” value with zebrafish embryos [5] (setting [9]) is “no detectable morphological changes; also recorded: no effect on normal heart development”. Further, the CC50 in the data set with Vero cell (Normal cell) stood at 163 ± 1.8 µM. In addition, the heart rate result in the data set with zebrafish larvae (setting [10]) was “no obvious abnormalities; also recorded: normal heart beats”.
For the molecule `O=C(C=Cc1cccc(Cl)c1)C=Cc1cccc(Cl)c1` [MS40B, 1,5-Bis(3-chlorophenyl)penta-1,4-dien-3-one], the EC50 in [1] (setting [6]) was determined as 45.6 ± 1.3 µM. Moreover, the “Selectivity Index (SI) (CC50MTT/EC50pLDH) P. falciparum Gombak A (CQ-resistant)” value in data set [1] is 3.6. For the same molecule, in the data set with P. knowlesi PKA1H1, the EC50 amounted to 16.6 ± 0.5 µM and the “Selectivity Index (SI) (CC50MTT/EC50pLDH) P. knowlesi PKA1H1” value is 9.9. In addition, the EC50 in data set [2] (setting [7]) was found to be 13.7 ± 0.8 µM. Moreover, in data set [2], the “Selectivity Index (SI) (CC50MTT/EC50pLDH) P. falciparum 3D7 (CQ-sensitive)” value amounted to 12.0 and the “antimalarial activity category against CQ-sensitive P. falciparum 3D7” value is “active”.
As to `COc1ccc(C=C2CCCC(=Cc3ccc(OC)c(OC)c3OC)C2=O)c(OC)c1OC` [MS72A, 2,6-Bis(2,3,4-trimethoxybenzylidene)cyclohexanone], the EC50 in [1] (setting [6]) was over 200 µM; in the data set on P. knowlesi PKA1H1 it was 507.5 ± 1.3 µM; in data set [2] (setting [7]) it was over 500 µM; in data set [2] (setting [8]) it was 530 ± 3.6 µM.
`COc1cc(C=CC(=O)C=Cc2cc(OC)c(OC)c(OC)c2)cc(OC)c1OC` [MS34C, 1,5-Bis(3,4,5-trimethoxyphenyl)penta-1,4-dien-3-one]: the “development … (ISVs)” value in data set [3] (up to 200 μM) is “no effect on normal vessel development; also recorded: no significant difference”. The “Selectivity Index (SI) (CC50MTT/EC50pLDH) P. falciparum Gombak A (CQ-resistant)” value in [1] came to 15.4. Moreover, the “mean STC activity” value in the data set with zebrafish embryos [4] is recorded as “No significant change”. Also, in the data set on P. knowlesi PKA1H1, the EC50 came to 11.8 ± 1.1 µM and the “Selectivity Index (SI) (CC50MTT/EC50pLDH) P. knowlesi PKA1H1” value is 11.4. In addition, in data set [2], the “Selectivity Index (SI) (CC50MTT/EC50pLDH) P. falciparum 3D7 (CQ-sensitive)” value came to 84.0 and the “antimalarial activity category against CQ-sensitive P. falciparum 3D7” value is given as “active”. Further, in the data set on zebrafish embryos [5] (up to 200 μM), the “effect on early embryonic development” value was “no significant effect”. The “morphological changes / heart development” value with zebrafish embryos [5] (setting [9]) is given as “no detectable morphological changes; also recorded: no effect on normal heart development”. Also, in the data set with Vero cell (Normal cell), the CC50 came out at 134 ± 3.2 µM. In the data set on zebrafish larvae (setting [10]), the heart rate entry was “no obvious abnormalities; also recorded: normal heart beats”.
`COc1cccc(C=C2CCCC(=Cc3cccc(OC)c3OC)C2=O)c1OC` [MS69, 2,6-Bis(2,3-dimethoxybenzylidene)cyclohexanone]: the EC50 is 28.7 ± 2 µM in [1] (setting [6]), 324 ± 5.9 µM in the data set on P. knowlesi PKA1H1, over 500 µM in [2] (setting [7]) and 785.8 ± 4.2 µM in data set [2] (setting [8]).
